Results as given in US20250057827A1, “CYTOTOXICITY TARGETING CHIMERAS FOR PROSTATE SPECIFIC MEMBRANE ANTIGEN-EXPRESSING CELLS” (GLAXOSMITHKLINE INTELLECTUAL PROPERTY DEVELOPMENT LIMITED, priority 2022, published 2025).

Biological target: T1, PSMA (target cells: LNCaP cells) (Homo sapiens, UniProt Q04609)
T1 construct: Target cells: LNCaP cells (typically 1000-20,000 cells per well); endogenous in cells; host or cells: LNCaP cells (target cells); Jurkat FcγRIIIa/NFAT-luciferase reporter cells also in the well
T1 sequence (Q04609 whole entry): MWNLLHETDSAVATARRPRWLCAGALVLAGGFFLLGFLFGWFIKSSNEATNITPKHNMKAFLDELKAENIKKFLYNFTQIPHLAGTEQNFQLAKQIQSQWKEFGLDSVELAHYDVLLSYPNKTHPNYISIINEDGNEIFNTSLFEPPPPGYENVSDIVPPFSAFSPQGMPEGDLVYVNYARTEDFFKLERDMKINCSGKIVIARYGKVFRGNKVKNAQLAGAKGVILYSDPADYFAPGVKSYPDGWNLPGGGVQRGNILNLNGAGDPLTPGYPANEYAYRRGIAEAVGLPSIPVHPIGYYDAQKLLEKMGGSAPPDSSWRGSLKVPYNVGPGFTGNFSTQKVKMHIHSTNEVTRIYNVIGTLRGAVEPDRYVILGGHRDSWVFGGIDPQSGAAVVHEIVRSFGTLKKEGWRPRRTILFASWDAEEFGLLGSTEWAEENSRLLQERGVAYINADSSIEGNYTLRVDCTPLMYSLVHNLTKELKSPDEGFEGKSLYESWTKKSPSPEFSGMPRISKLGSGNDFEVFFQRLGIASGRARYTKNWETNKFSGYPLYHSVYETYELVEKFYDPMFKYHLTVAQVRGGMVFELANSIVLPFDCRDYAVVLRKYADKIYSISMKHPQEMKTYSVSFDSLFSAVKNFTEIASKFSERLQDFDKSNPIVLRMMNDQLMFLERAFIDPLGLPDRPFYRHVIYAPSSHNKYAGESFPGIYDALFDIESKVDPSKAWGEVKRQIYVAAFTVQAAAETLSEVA
Test: Antibody dependent cellular cytotoxicity (ADCC) reporter assay
Type: cell-based
Design: key to ADCC Reporter Assay pEC50: Inactive: inactive = pEC50 < 5
Settings: anti-cotinine antibody (SEQ ID NO: 11/12), Jurkat FcγRIIIa NFAT-luciferase reporter cells, 12-18 hours, EC50 in molar, average if more than one run
Protocol: An antibody dependent cellular cytotoxicity (ADCC) reporter assay was conducted using the following four assay components: (i) ARM compound of Formula (I) targeting PSMA (concentrations ranging from 1 pM to 10 μM); (ii) anti-cotinine antibody having a heavy chain sequence of SEQ ID NO: 11 and a light chain sequence of SEQ ID NO: 12 (rabbit variable region with human IgG1 Fc domain containing DE mutation (S239D/I332E)) (concentrations ranging from 0.01 μg/mL-200 μg/mL); (iii) Target cells: LNCaP cells (typically 1000-20,000 cells per well); and (iv) Reporter cells—Jurkat cells engineered to express FcγRIIIa with a reporter gene luciferase under the control of the NFAT promoter (typically 3000-75,000 cells per well). Reagents were combined in final volume of 20 μL in 384—well tissue culture treated plate. All four assay components were incubated together for about 12-18 hours. Thereafter, BioGlo Detection reagent (Promega) was added to the wells to lyse the cells and provide a substrate for the luciferase reporter protein.
Luminescence signal was measured on a microplate reader capable of measuring luminescence and signal: background was calculated by dividing the signal of a test well by the signal obtained when no compound of formula (I) was included in the assay. EC50 calculations were done using Graphpad Prism Software, specifically a nonlinear regression curve fit (Y=Bottom+(Top−Bottom)/(1+10^((Log EC50−X)*HillSlope))).
ARMs compounds of Formula (I) were tested for ADCC activity in the above assay in one or more experimental runs and the results are shown in Table 3 below. Potency of the compounds of Formula (I) is reported as a pEC50 values. The pEC50 value is the negative log of the EC50 value, wherein the EC50 value is half maximal effective concentration measured in molar (M). For compounds tested in more than one experimental run, the pEC50 value is reported as an average.

Compound | ADCC Reporter Assay pEC50
CN1C(=O)C[C@H](C(=O)N[C@@H](Cc2ccc3ccccc3c2)C(=O)NCCCC[C@H](NC(=O)N[C@@H](CCC(=O)O)C(=O)O)C(=O)O)[C@H]1c1cccnc1 [Example 10, (((S)-1-Carboxy-5-((S)-2-((2S,3S)-1-methyl-5-oxo-2-(pyridin-3-yl)pyrrolidine-3-carboxamido)-3-(naphthalen-2-yl)propanamido)pentyl)carbamoyl)-L-glutamic acid] | Inactive^1

Same assay, conditions: anti-cotinine antibody (SEQ ID NO: 11/12), Jurkat FcγRIIIa NFAT-luciferase reporter cells, 12-18 hours, EC50 in molar, average if more than one run, read-out: ADCC Reporter Assay pEC50 (converted)

Compound | EC50
CN1C(=O)C[C@H](C(=O)NCCO[C@H]2CC[C@H](OCCCC(=O)N[C@H]3CC[C@H](C(=O)N[C@H]4CC[C@H](NC(=O)CC[C@H](NC(=O)N[C@@H](CCC(=O)O)C(=O)O)C(=O)O)CC4)CC3)CC2)[C@H]1c1cccnc1 [Example 4, (((S)-1-Carboxy-4-(((1R,4R)-4-((1R,4R)-4-(4-(((1S,4R)-4-(2-((2S,3S)-1-methyl-5-oxo-2-(pyridin-3-yl)pyrrolidine-3-carboxamido)ethoxy)cyclohexyl)oxy)butanamido)cyclohexane-1-carboxamido)cyclohexyl)amino)-4-oxobutyl)carbamoyl)-L-glutamic acid] | 50.1 nM
CN1C(=O)C[C@H](C(=O)NCCO[C@H]2CC[C@H](OCCCC(=O)N[C@H]3CC[C@H](C(=O)N[C@@H](Cc4ccc5ccccc5c4)C(=O)NCCCC[C@H](NC(=O)N[C@@H](CCC(=O)O)C(=O)O)C(=O)O)CC3)CC2)[C@H]1c1cccnc1 (racemic) [Example 8, (((S)-1-Carboxy-5-((S)-2-((1R,4S)-4-(4-(((1S,4R)-4-(2-((2S,3S)-1-methyl-5-oxo-2-(pyridin-3-yl)pyrrolidine-3-carboxamido)ethoxy)cyclohexyl)oxy)butanamido)cyclohexane-1-carboxamido)-3-(naphthalen-2-yl)propanamido)pentyl)carbamoyl)-L-glutamic acid] | 2.24 nM
CN1C(=O)C[C@H](C(=O)NCCOCCOCCOCCOCCOCCOCCOCCOCCOCCOCCOCCOCCC(=O)N[C@@H](Cc2ccc3ccccc3c2)C(=O)NCCCC[C@H](NC(=O)N[C@@H](CCC(=O)O)C(=O)O)C(=O)O)[C@H]1c1cccnc1 [Example 9, (((S)-1-Carboxy-5-((S)-2-(1-((2S,3S)-1-methyl-5-oxo-2-(pyridin-3-yl)pyrrolidin-3-yl)-1-oxo-5,8,11,14,17,20,23,26,29,32,35,38-dodecaoxa-2-azahentetracontan-41-amido)-3-(naphthalen-2-yl)propanamido)pentyl)carbamoyl)-L-glutamic acid] | 8.91 nM
CN1C(=O)C[C@H](C(=O)NCCO[C@H]2CC[C@H](OCCCC(=O)N[C@H]3CC[C@H](C(=O)N4CCN(C(=O)CC[C@H](NC(=O)N[C@@H](CCC(=O)O)C(=O)O)C(=O)O)CC4)CC3)CC2)[C@H]1c1cccnc1 [Example 1, (((S)-1-Carboxy-4-(4-((1R,4R)-4-(4-(((1S,4R)-4-(2-((2S,3S)-1-methyl-5-oxo-2-(pyridin-3-yl)pyrrolidine-3-carboxamido)ethoxy)cyclohexyl)oxy)butanamido)cyclohexane-1-carbonyl)piperazin-1-yl)-4-oxobutyl)carbamoyl)-L-glutamic acid] | 50.1 nM
CN1C(=O)C[C@H](C(=O)NCCNC(=O)[C@H](Cc2ccccc2)NC(=O)[C@H](Cc2ccccc2)NC(=O)CCCCCCCNC(=O)CC[C@H](NC(=O)N[C@@H](CCC(=O)O)C(=O)O)C(=O)O)[C@H]1c1cccnc1 [Example 5, (7S,10S,24S,28S)-7,10-Dibenzyl-1-((2S,3S)-1-methyl-5-oxo-2-(pyridin-3-yl)pyrrolidin-3-yl)-1,6,9,12,21,26-hexaoxo-2,5,8,11,20,25,27-heptaazatriacontane-24,28,30-tricarboxylic acid] | 39.8 nM
CN1C(=O)C[C@H](C(=O)NCCO[C@H]2CC[C@H](OCCCC(=O)N[C@H]3CC[C@H](C(=O)NCCNC(=O)[C@H](Cc4ccccc4)NC(=O)[C@H](Cc4ccccc4)NC(=O)CCCCCCCNC(=O)CC[C@H](NC(=O)N[C@@H](CCC(=O)O)C(=O)O)C(=O)O)CC3)CC2)[C@H]1c1cccnc1 [Example 6, (7S,10S,24S,28S)-7,10-dibenzyl-1-((1R,4S)-4-(4-(((1S,4R)-4-(2-((2S,3S)-1-methyl-5-oxo-2-(pyridin-3-yl)pyrrolidine-3-carboxamido)ethoxy)cyclohexyl)oxy)butanamido)cyclohexyl)-1,6,9,12,21,26-hexaoxo-2,5,8,11,20,25,27-heptaazatriacontane-24,28,30-tricarboxylic acid] | 39.8 nM
CN1C(=O)C[C@H](C(=O)NCCOCCOCCOCCOCCOCCOCCOCCOCCOCCOCCOCCOCCC(=O)NCCNC(=O)[C@H](Cc2ccccc2)NC(=O)[C@H](Cc2ccccc2)NC(=O)CCCCCCCNC(=O)CC[C@H](NC(=O)N[C@@H](CCC(=O)O)C(=O)O)C(=O)O)[C@H]1c1cccnc1 [Example 7, (47S,50S,64S,68S)-47,50-Dibenzyl-1-((2S,3S)-1-methyl-5-oxo-2-(pyridin-3-yl)pyrrolidin-3-yl)-1,41,46,49,52,61,66-heptaoxo-5,8,11,14,17,20,23,26,29,32,35,38-dodecaoxa-2,42,45,48,51,60,65,67-octaazaheptacontane-64,68,70-tricarboxylic acid] | 126 nM
CN1C(=O)C[C@H](C(=O)NCCO[C@H]2CC[C@H](OCCCC(=O)N[C@H]3CC[C@H](C(=O)NCCNC(=O)CC[C@H](NC(=O)N[C@@H](CCC(=O)O)C(=O)O)C(=O)O)CC3)CC2)[C@H]1c1cccnc1 [Example 3, (9S,13S)-1-((1R,4R)-4-(4-(((1S,4R)-4-(2-((2S,3S)-1-Methyl-5-oxo-2-(pyridin-3-yl)pyrrolidine-3-carboxamido)ethoxy)cyclohexyl)oxy)butanamido)cyclohexyl)-1,6,11-trioxo-2,5,10,12-tetraazapentadecane-9,13,15-tricarboxylic acid] | 126 nM
CN1C(=O)C[C@H](C(=O)NCCO[C@H]2CC[C@H](OCCCC(=O)N[C@H]3CC[C@H](C(=O)N[C@H]4CC[C@@H](NC(=O)CC[C@H](NC(=O)N[C@@H](CCC(=O)O)C(=O)O)C(=O)O)CC4)CC3)CC2)[C@H]1c1cccnc1 [Example 2, (((S)-1-Carboxy-4-(((1S,4S)-4-((1R,4S)-4-(4-(((1S,4R)-4-(2-((2S,3S)-1-methyl-5-oxo-2-(pyridin-3-yl)pyrrolidine-3-carboxamido)ethoxy)cyclohexyl)oxy)butanamido)cyclohexane-1-carboxamido)cyclohexyl)amino)-4-oxobutyl)carbamoyl)-L-glutamic acid] | 50.1 nM
